Measurements: patent publication US11364211B2, “Methods for selecting phosphatase selective and non-selective phosphatase inhibitors” (MEDICAL RESEARCH COUNCIL, priority 2015, dated 2022)
Entries after “also recorded” stand apart in the source; their conditions may differ.

Experiments:
[1] = Guanabenz-like side effects: mouse activity after acute dosing; assay type: in vivo; conditions: 10 mg/kg oral gavage, 30 minutes following dosing
Procedure: To assess whether of a compound of Example 1 had the side effects of Guanabenz, mice (n>3) were gavaged orally with 10 mg/kg of compound or Guanabenz. Their activity was monitored 30 minutes following dosing.
In order to assess the GBZ-like side effects (due to the adrenergic activity) of treatment the motor performance of mice was monitored after a single administration of TST3. To this end mice were treated with TST3 and left in a cage for 60 minutes. Mice behaviour was monitored every 15 minutes. Mice similarly treated with GBZ were used as a control.

PP1c = PP1c (Homo sapiens, UniProt P36873); experiment: PP1c catalytic activity assay (EnzChek); assay type: biochemical; conditions: purified PP1c 30 nM, 30 minutes at 4° C.
Sequence of PP1c (P36873 whole entry): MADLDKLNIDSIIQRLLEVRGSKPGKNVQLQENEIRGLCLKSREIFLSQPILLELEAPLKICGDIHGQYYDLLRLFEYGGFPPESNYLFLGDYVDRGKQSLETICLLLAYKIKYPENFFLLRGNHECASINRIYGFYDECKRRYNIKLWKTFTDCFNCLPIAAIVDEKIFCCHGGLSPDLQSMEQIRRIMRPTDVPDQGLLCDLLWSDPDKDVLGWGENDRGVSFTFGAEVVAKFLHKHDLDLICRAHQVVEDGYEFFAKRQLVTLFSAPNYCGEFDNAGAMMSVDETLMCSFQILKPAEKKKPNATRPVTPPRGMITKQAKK
Procedure: Residual activity of PP1c was then measured using the EnzChek Phosphatase Assay Kit (Thermo Fisher Scientific) according to the supplier's instructions.

PPP1R15B-PP1 complex = molecular target: T1, PPP1R15B-PP1 complex (Homo sapiens, UniProt Q5SWA1); experiment: SPR steady-state binding to R15B-PP1c holophosphatase on streptavidin chip; conditions: SPR
T1 construct: 340-698 of PPP1R15B were His-tagged and cloned into pMAL-c5x; made in house; host or cells: R15B fragment: E. coli BL21-Gold; BAP-PP1γ: Sf9 insect cells (baculovirus)
T1 sequence (Q5SWA1 340-698): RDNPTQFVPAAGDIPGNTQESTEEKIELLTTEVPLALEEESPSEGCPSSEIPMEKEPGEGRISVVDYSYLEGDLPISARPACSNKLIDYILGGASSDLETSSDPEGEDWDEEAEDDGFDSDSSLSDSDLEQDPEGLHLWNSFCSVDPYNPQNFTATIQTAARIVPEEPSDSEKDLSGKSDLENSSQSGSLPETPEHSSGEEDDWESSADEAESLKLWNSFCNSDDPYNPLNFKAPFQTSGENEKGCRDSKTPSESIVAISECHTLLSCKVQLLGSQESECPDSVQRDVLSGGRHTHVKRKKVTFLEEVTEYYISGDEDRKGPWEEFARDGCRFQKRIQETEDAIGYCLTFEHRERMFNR
T1 sequence (P36873 whole entry partner, the tested form may be a part): as the sequence (P36873 whole entry) above
Procedure: The streptavidin coated surface was activated by 1 min injection with a solution of 50 mM NaOH and 1 M NaCl. Biotin-PP1 was diluted in the running buffer (50 mM Tris pH 7.5, 100 mM NaCl, 0.1 mM EGTA, 1 mM MnCl2, 0.05% Tween 20) and injected at approximately 300 nM concentration directly to streptavidin coated surface for 100 sec or to reach immobilization level of biotin-PP1 corresponding to ˜7000 RU. A blank immobilization was performed for one of the SA sensor chip surface to use as a reference.
With minor deviations, the same procedure and conditions were used in all binding experiments. Small molecules were stored as 50 mM stock solutions in 100% DMSO. Prior to determining binding constants, serial dilutions of either 12 or 8 concentrations of the compounds were prepared in the running buffer in a 96-well plate. […] Then, without regenerating the surface, the compound dilution series was injected onto the surface of the chip Sensorgrams were analyzed using the Biacore T200 evaluation software and the binding constants determined based on a steady-state model. Kinetic experiments are carried out using different concentrations of the compound and their respective equilibrium binding levels determined.
Surface Plasmon Resonance (SPR) was used to measure the binding affinity of compounds to the PPP1R15A/B-PP1 phosphatase complex. Biotin acceptor peptide (BAP) was fused to the N-terminus of PP1γ, which enables the biotinylation of the BAP-tagged protein in Sf9 insect cells. After purification the BAP-PP1γ protein was captured on a streptavidin sensor chip (SA-chip, GE healthcare) to a response level of ˜5.000 RU. Using controlled biotinylation enables orientated and uniform immobilization on the sensor chip surface. The PP1γ was then used to capture PPP1R15A/B and form a holophosphatase complex on the surface of the streptavidin chip. This complex can then be used to test binding of compounds. 10 μM PPP1R15A/B protein concentration was used to form the holophosphatase complex during a 80 s injection. […] After the concentration series (8 or 12 concentrations) is completed the surface is regenerated with 3 M NaCl and we can capture R15A/B again to form a fresh holophosphatase complex to measure a binding of another compound concentration series. Analysing the level of equilibrium binding as a function of concentration gives interaction affinities or steady-state binding affinity (KD).
The streptavidin coated surface was activated by 1 minute injection with a solution of 50 mM NaOH and 1 M NaCl three times at a flow rate of 10 μl/min. bio-GBZ or bio-PP1c was diluted in the running buffer (50 mM Tris pH 7.5, 100 mM NaCl, 0.1 mM EGTA, 0.05% Tween 20, 0.1% DMSO) and injected at approximately 300 nM concentration at a flow rate of 10 μl/min directly to streptavidin coated surface to reach immobilization level of bio-GBZ or bio-PP1c corresponding to ˜200 and 6000 RU, respectively. A blank immobilization was performed for one of the SA sensor chip surface to use as a reference.
With minor deviations, the same procedure and conditions were used in all binding experiments. Small molecules were stored as 50 mM stock solutions in 100% DMSO. Prior to determining binding constants, serial dilutions of either 12 or 8 concentrations of the compounds were prepared in the running buffer in a 96-well plate. […] This was followed by 1 minute stabilization period, to wash off any unspecific binding. Then, without regenerating the surface, the compound dilution series was injected onto the surface of the chip at a flow rate of 30 μl/min for 1 minute, followed by 2 minutes dissociation time. After each dilution series the surface was regenerated using 3 M NaCl for 90 seconds. […] In order to be able to correct for small variations in DMSO concentration between samples, eight solvent samples ranging from 0.06 to 8% DMSO were injected every 50th cycle. The flow cell temperature was 10° C.

[2] = test system: eIF2α phosphorylation in HeLa cells; experiment: eIF2α phosphorylation in cells in the absence of stress (immunoblot); assay type: cell-based, human; conditions: for eIF2α phosphorylation in the absence of stress: human/HeLa cells, basal conditions, TST3 at 10 μM
Procedure: For immunoblots, HeLa cells (80,000 cells/ml) were plated in 12-well plates 24 hours before each experiment. Immediately after the indicated treatments, cells were lysed in 75 μl Laemmli Buffer, boiled at 95° C. for 5 minutes and sonicated. Proteins were separated and analysed as described (Tsaytler et al., Science, 332, 91-94, 2011) with the following antibodies: phospho-elf2α [pS52] and PPP1R15A/GADD34 (10449-1-AP; ProteinTech Group, 1/1000 dilution).
Human cells were treated with a PPP1R15B inhibitor and eIF2α phosphorylation was monitored over time. […] This was manifested between 1 and 7.5 hours after addition of the compound of Example 1. […] Indeed, the inventors noticed that PPP1R15A was induced at the late time points following addition of the compound of Example 1 (see Assay 3). […] Furthermore, this establishes that the compound of Example 1 spares PPP1R15A. This assay can serve to identify other selective PPP1R15B inhibitors.
Cells (90,000 cells/ml) were plated in a 24-well plate and treated as indicated. At the end of treatment cells were lysed in 150 μl Laemmli Buffer. Lysates were boiled at 95° C. for 5 minutes, sonicated and resolved on 4-12% Bolt Bis-Tris Plus Gels (Thermo Fisher Scientific). Proteins were transferred to the nitrocellulose membrane using the iBlot 2 system (Thermo Fisher Scientific) and analysed using the following antibodies: e-IF2α-P (44-728G, Thermo Fisher Scientific, 1:1000), e-IF2α (ab5369, Abcam, 1:1000), tubulin (T5168, Sigma-Aldrich, 1:4000), BiP (610978, BD Biosciences Pharmingen, 1:1000), ATF4 (sc-200, Santa Cruz Biotechnology, 1:500), Ppp1r15a (10449-1-AP, Proteintech, 1:1000) and Ppp1r15b (14634-1-AP, Proteintech, 1:1000). Proteins were visualized using ECL Prime (GE Healthcare).

SMILES | side effects of Guanabenz / activity of mice after dosing ([1]; 10 mg/kg) | inhibition of PP1c in enzymatic assay (PP1c; listed as TST3) | binding to R15B-PP1c (in words) (PPP1R15B-PP1 complex) | Kd (PPP1R15B-PP1 complex; steady-state affinity) [nM] | eIF2α phosphorylation in the presence of GBZ ([2]; HeLa cells, TST3+GBZ at 10 μM) | time after addition at which eIF2α phosphorylation returned to basal levels ([2]; absence of stress) [h] | eIF2α phosphorylation in the absence of stress [2] | eIF2α phosphorylation in the absence of stress ([2]; listed as TST3) | side effects of Guanabenz / activity of mice after dosing [1] | inhibition of PP1c in enzymatic assay (PP1c) | binding to R15B-PP1c (in words) (PPP1R15B-PP1 complex; listed as GBZ)
[H]/N=C(\N)NN=Cc1cccc(Cl)c1Cl [Example 1, (E)-2-(2,3-dichlorobenzylidene)hydrazine-1-carboximidamide] | as active as untreated mice; also recorded: devoid of the side effects of Guanabenz; also recorded: does not cause the side effects of Guanabenz | does not inhibit PP1c; also recorded: doesn't inhibit PP1 | bound strongly and selectively | 33 | persistently induces eIF2α phosphorylation; also recorded: rendered persistent | 10 | induced eIF2α phosphorylation; also recorded: induces a transient phosphorylation of eIF2α | transiently induces eIF2α phosphorylation; also recorded: rapidly and transiently increased eIF2α phosphorylation |  |  | 
N=C(N)N/N=C/c1c(Cl)cccc1Cl [Guanabenz, reference compound] |  |  |  |  |  |  | did not affect |  | did not move | does not inhibit PP1c | not or weakly; also recorded: no binding was detected
